Counter-ions that a name gives are not always drawn.
Experiment: not given
Conditions: not given

| Compound | melting point |
| --- | --- |
| CCOC(=O)/C(C#N)=N/OC(N(C)C)N(C)C (as salt: phosphate) [HTOCC, O-[Cyano(ethoxycarbonyl)methylidene)amino]-1,1,3,3-tetramethyluronium Hexafluorophosphate] | 135 to 137 °C (dec.) |
| CN(C)C(ON=C(C#N)C#N)=[N+]1CCCC1 (as salt: phosphate) [HDmPyODC, 1-[(1-(dicyanomethylideneaminooxy)-dimethylamino-pyrrolodinomethylene)]methanaminium hexafluorophosphate] | 146 to 147 °C (dec.) |
| CN(C)C(O/N=C(\C#N)c1ccccn1)=[N+](C)C (as salt: phosphate) | 169 to 171 °C |
| CCOC(=O)C(C#N)=NOC(N(C)C)=[N+]1CCCC1 (as salt: phosphate) [HDmPyOCC, 1-[(1-(Cyano-2-ethoxy-2-oxoethylideneaminooxy)-dimethylamino-pyrrolodinomethylene)]methanaminium hexafluorophosphate] | 126 to 127 °C (dec.) |

Continued, values first:

| melting point | Compound |
| --- | --- |
| 145 to 146 °C (dec.) | O=c1ccccn1OC(N1CCOCC1)=[N+]1CCCC1 (as salt: phosphate) |
| 192 to 193 °C | CN(C)C(n1n[n+]([O-])c2ccc(Cl)cc21)=[N+]1CCCC1 (as salt: phosphate) |
| 118 to 119 °C | C[N+](C)=C(ON=C(C#N)C#N)N1CCOCC1 (as salt: phosphate) [HDMODC, 1-[(1-(dicyanomethyleneaminooxy)-dimethylamino-morpholinomethylene)]methanaminium hexafluorophosphate] |
| 171 to 172 °C | CCOC(=O)/C(C#N)=N/OC(N1CCOCC1)=[N+]1CCCC1 (as salt: phosphate) [HMPyOCC, 1-((1-cyano-2-ethoxy-2-oxoethylideneaminooxy)(morpholino)methylene) pyrrolidinium hexafluorophosphate] |
| 206 to 208 °C (dec.) | [O-][n+]1nn(C(N2CCCC2)N2CCOCC2)c2cccnc21 (centres unmarked) (as salt: phosphate) [HMPyA, 1-(morpholino(pyrrolidinium-1-ylidene)methyl)-1H-[1,2,3]triazolo[4,5-I]pyridine 3-oxide hexafluorophosphate] |

Experiment: Maximal solubility of coupling agents in DMF
Conditions: calculated molarity in DMF

| Compound | Molarity |
| --- | --- |
| 1-((dimethylimino)(morpholino)methyl)3-H-6-trifluoromethylbenzo[1,2,3]-triazolo-1-ium-3-olate hexafluorophosphate [6-CF3HDMB] | 1.02 |
| 1-((dimethylimino)(morpholino)methyl)3-H-6-chlorobenzo[1,2,3]triazolo-1-ium-3-olate hexafluorophosphate [6-Cl-HDMB] | 1.0 |

Same assay, conditions: maximal solubility; mass of agent per volume of DMF

| Compound | Wt/ml |
| --- | --- |
| 1-((dimethylimino)(morpholino)methyl)3-H-6-trifluoromethylbenzo[1,2,3]-triazolo-1-ium-3-olate hexafluorophosphate [6-CF3HDMB] | 0.475 |
| 1-((dimethylimino)(morpholino)methyl)3-H-[1,2,3]triazolo[4,5-b]pyridine-1-3-olate hexafluorophosphate [HDMA] | 0.285 |
| 1-((dimethylimino)(morpholino)methyl)3-H-6-chlorobenzo[1,2,3]triazolo-1-ium-3-olate hexafluorophosphate [6-Cl-HDMB] | 0.456 |

Source: US8524898B2, “Proton acceptor iminium/carbocation-type coupling agents” (Luxembourg Bio Technologies Ltd., priority 2007, dated 2013)
